Measured values reported in patent US20240287065A1, “COMPOUND AS CDK KINASE INHIBITOR AND USE THEREOF” (TYK MEDICINES (ZHENGZHOU) , INC., priority 2021, published 2024).

Key:
MCF7 cells = assay: Cell proliferation inhibition assay (MTT, 7 days); format: cell-based; conditions: Homo sapiens, 168 h, 7 days incubation
Method: (§1) MCF7, T47D, OVCAR3 and HCC1806 cells were inoculated in 96-well plates at 3000, 3000, 2500, and 2000 cells/well, respectively, and cultured overnight at 37° C., 5% C02 incubator.
(§2) 1. […] Then 2.5 μl of the stock solution was dissolved in 497.5 μl of DMSO-free medium, and then a 3-fold serial gradient dilution was performed with 0.1% DMSO medium for a total of 9 concentrations, and the concentrations of the compounds after dilution were as follows: • 10000 nM, 3333.33 nM, 1111.11 nM, 370.34 nM, 123.45 nM, 41.15 nM, 13.72 nM, 4.57 nM, and 1.52 nM. • b) After fully mixing, 20 μL of compound solutions were added into cell culture plates containing 80 μL of cells respectively, with 4 replicate wells for each concentration. • c) The cells were transferred to an incubator and incubated for 7 days, and exchanged with fresh culture medium containing the same concentration of compounds when incubated to day 4. 2. MTT assay • a) The cell culture plate was taken out and 10 μL of 5 mg/ml MTT was added to the hood. • b) The cell culture plate was put back into the incubator and continued to incubate for 3 hours. • c) The cell culture plate was taken out to remove the culture medium, and 100 μL of isopropanol (0.4 mMHCl, 0.4% NP40) was added to the plate, and the plate was shaken on a shaker at room temperature for 30 minutes and read at 570 nm. 3. Data analysis
(§3) The survival rate (% Cell Survival) was calculated using the following equation:
(§4) % Cell Survival=100%×(OD_Sample−OD_LCave)/(OD_HC−OD_LCave) • OD_HC: 0.1‰ cell readings of DMSO control • OD_Sample: cell readings of compound addition • OD_LC: readings of blank medium • Analyed by Prizm: Dose-response-Inhibition Log(inhibitor) vs response (three parameters for the best fit)
(§5) IC50 (nM) values were calculated by concentration-response curve fitting.

HCC1806 cells = assay: Cell proliferation inhibition assay (MTT, 7 days); format: cell-based; conditions: Homo sapiens, HCC1806, 168 h, HCC1086 [sic], 7 days incubation
Method: as §1, §2, §3, §4, §5

OVCAR3 cells = assay: Cell proliferation inhibition assay (MTT, 7 days); format: cell-based; conditions: Homo sapiens, OVCAR-3, 168 h, 7 days incubation
Method: as §1, §2, §3, §4, §5

T47D cells = assay: Cell proliferation inhibition assay (MTT, 7 days); format: cell-based; conditions: Homo sapiens, 168 h, 7 days incubation
Method: as §1, §2, §3, §4, §5

CDK6/CycD1 = CDK6/CycD1 (Homo sapiens, UniProt Q00534); assay: Enzyme activity test; format: biochemical;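 also: values come from the source column headed CDK6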
Sequence of CDK6/CycD1 (Q00534 whole entry, species assumed): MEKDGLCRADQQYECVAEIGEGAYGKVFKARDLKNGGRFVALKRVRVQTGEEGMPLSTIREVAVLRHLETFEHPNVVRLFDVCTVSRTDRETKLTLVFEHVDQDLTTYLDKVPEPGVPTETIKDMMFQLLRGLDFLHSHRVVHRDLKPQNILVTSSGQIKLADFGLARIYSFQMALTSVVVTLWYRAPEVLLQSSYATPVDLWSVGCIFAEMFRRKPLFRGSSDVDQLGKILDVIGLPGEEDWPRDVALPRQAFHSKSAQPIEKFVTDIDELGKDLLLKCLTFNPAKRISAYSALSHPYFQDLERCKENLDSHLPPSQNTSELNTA
Sequence of CDK6/CycD1 (P24385 whole entry partner, species assumed): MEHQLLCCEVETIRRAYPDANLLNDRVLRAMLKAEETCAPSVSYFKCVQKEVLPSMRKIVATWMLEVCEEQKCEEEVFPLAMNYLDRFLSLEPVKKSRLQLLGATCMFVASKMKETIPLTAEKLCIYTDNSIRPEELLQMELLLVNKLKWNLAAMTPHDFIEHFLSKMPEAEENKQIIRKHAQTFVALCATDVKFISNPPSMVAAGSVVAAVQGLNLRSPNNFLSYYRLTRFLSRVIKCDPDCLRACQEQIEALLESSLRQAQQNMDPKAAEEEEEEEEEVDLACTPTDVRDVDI
Method: (§6) • 1. The test compounds and pabocinib were configured into a […] solution of DMSO; • 2. 20 nL of stock solution was transferred to a 384-well plate using Echo550. DMSO was used as a blank control.
(§7) • 1. according to the following table to prepare 1.3X enzyme solution containing enzyme, substrate and cofactor; • 2. 15 μL of 1.3X enzyme solution was added to each well and the mixture was incubated for 30 min at room temperature; • 3. 5 μL of ATP solution was added to initiate the reaction. The final volume of each well was 20 μL; • 4. After incubation for 150 min at room temperature, 75 μL of termination buffer solution was added to terminate the experiment; • 5. The samples were analyzed using EZ reader.
(§8) The % inhibition was calculated using the following equation
(§9) The one treated with DMSO is the positive control (PC)
(§10) The one without enzyme is the negative control (NC)
(§11) % Inhibition=100-100*((CRPC−CRsample)/(CRPC−CRNC))

CDK2/CycE1 = CDK2/CycE1 (Homo sapiens, UniProt P24941); assay: Enzyme activity test; format: biochemical;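 also: values come from the source column headed CDK2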
Method: as §6, §7, §8, §9, §10, §11

CDK4/CycD3 = CDK4/CycD3 (Homo sapiens, UniProt P11802); assay: Enzyme activity test; format: biochemical;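 also: values come from the source column headed CDK4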
Sequence of CDK4/CycD3 (P11802 whole entry, species assumed): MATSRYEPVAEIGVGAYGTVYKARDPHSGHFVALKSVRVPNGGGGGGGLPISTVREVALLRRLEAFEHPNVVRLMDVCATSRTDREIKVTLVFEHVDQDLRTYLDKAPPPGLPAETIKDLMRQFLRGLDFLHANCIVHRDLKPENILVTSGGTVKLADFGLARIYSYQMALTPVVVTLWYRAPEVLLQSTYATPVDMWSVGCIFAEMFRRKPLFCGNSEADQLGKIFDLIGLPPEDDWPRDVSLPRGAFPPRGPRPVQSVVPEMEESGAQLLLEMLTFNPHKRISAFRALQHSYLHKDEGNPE
Sequence of CDK4/CycD3 (P30281 whole entry partner, species assumed): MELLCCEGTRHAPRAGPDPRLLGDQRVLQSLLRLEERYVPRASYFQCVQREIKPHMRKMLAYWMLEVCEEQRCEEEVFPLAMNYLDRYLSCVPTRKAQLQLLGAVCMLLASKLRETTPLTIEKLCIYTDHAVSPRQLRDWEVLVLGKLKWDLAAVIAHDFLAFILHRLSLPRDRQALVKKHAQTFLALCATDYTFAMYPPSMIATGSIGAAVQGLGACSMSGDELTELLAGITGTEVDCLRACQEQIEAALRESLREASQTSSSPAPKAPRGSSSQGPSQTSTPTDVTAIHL
Method: as §6, §7, §8, §9, §10, §11

Row | Structure (SMILES) | IC50 (MCF7 cells) [nM] | IC50 (HCC1806 cells) [nM] | IC50 (OVCAR3 cells) [nM] | IC50 (T47D cells) [nM] | IC50 (CDK6/CycD1) [nM] | IC50 (CDK2/CycE1) [nM] | IC50 (CDK4/CycD3) [nM]
1 | C[C@@]1(O)CCC[C@H]1n1c(=O)c(OC(F)F)cc2cnc(NC3CCN(S(=O)(=O)c4ccc(C#N)cc4)CC3)nc21 [Example 6] | ≤ 50 | ≤ 50 | ≤ 50 | ≤ 50 | < 10 | < 10 | < 10
2 | C[C@@]1(O)CCC[C@H]1n1c(=O)c(OC(F)F)cc2cnc(NC3CCN(S(=O)(=O)c4cccc(F)c4)CC3)nc21 [Example 17] | ≤ 50 | ≤ 50 | ≤ 50 | ≤ 50 | < 10 | < 10 | < 10
3 | COc1cccc(S(=O)(=O)N2CCC(Nc3ncc4cc(OC(F)F)c(=O)n([C@@H]5CCC[C@@]5(C)O)c4n3)CC2)c1 [Example 10] | 50 to 5200 | 50 to 5200 | ≤ 50 | ≤ 50 | < 10 | < 10 | < 10
4 | Cc1ccc(S(=O)(=O)N2CCC(Nc3ncc4cc(OC(F)F)c(=O)n([C@@H]5CCC[C@@]5(C)O)c4n3)CC2)cc1 [Example 8] | 50 to 5200 | 50 to 5200 | ≤ 50 | ≤ 50 | < 10 | < 10 | 10 to 100
5 | CC(C)(C)c1ccc(S(=O)(=O)N2CCC(Nc3ncc4cc(OC(F)F)c(=O)n([C@@H]5CCC[C@@]5(C)O)c4n3)CC2)cc1 [Example 23] | 50 to 5200 | 200 to 51000 | 50 to 5200 | 50 to 5200 | 10 to 100 | < 10 | 10 to 100
6 | C[C@@]1(O)CCC[C@H]1n1c(=O)c(OC(F)F)cc2cnc(NC3CCN(S(=O)(=O)c4ccccc4)CC3)nc21 [Example 16] | ≤ 50 | ≤ 50 | ≤ 50 | ≤ 50 | < 10 | < 10 | < 10
7 | CN(C)c1ccc(S(=O)(=O)N2CCC(Nc3ncc4cc(OC(F)F)c(=O)n([C@@H]5CCC[C@@]5(C)O)c4n3)CC2)cc1 [Example 22] | 50 to 5200 | 50 to 5200 | ≤ 50 | ≤ 50 | < 10 | < 10 | 10 to 100
8 | COc1ccccc1S(=O)(=O)N1CCC(Nc2ncc3cc(OC(F)F)c(=O)n([C@@H]4CCC[C@@]4(C)O)c3n2)CC1 [Example 14] | 50 to 5200 | 50 to 5200 | 50 to 5200 | ≤ 50 | < 10 | < 10 | 10 to 100
9 | C[C@@]1(O)CCC[C@H]1n1c(=O)c(OC(F)F)cc2cnc(NC3CCN(S(=O)(=O)c4cc(F)cc(F)c4)CC3)nc21 [Example 15] | 50 to 5200 | 50 to 5200 | 50 to 5200 | 50 to 5200 | < 10 | < 10 | < 10
10 | C[C@@]1(O)CCC[C@H]1n1c(=O)c(OC(F)F)cc2cnc(NC3CCN(S(=O)(=O)c4ccc(S(C)(=O)=O)cc4)CC3)nc21 [Example 11] | ≤ 50 | ≤ 50 | ≤ 50 | ≤ 50 | < 10 | < 10 | < 10
11 | C[C@@]1(O)CCC[C@H]1n1c(=O)c(OC(F)F)cc2cnc(NC3CCN(S(=O)(=O)c4ccccc4C#N)CC3)nc21 [Example 9] | 50 to 5200 | 50 to 5200 | ≤ 50 | 50 to 5200 | < 10 | < 10 | < 10
12 | C[C@@]1(O)CCC[C@H]1n1c(=O)c(OC(F)F)cc2cnc(NC3CCN(S(=O)(=O)c4ccc(F)cc4F)CC3)nc21 [Example 7] | 50 to 5200 | 50 to 5200 | 50 to 5200 | ≤ 50 | < 10 | < 10 | < 10
13 | C[C@@]1(O)CCC[C@H]1n1c(=O)c(OC(F)F)cc2cnc(NC3CCN(S(=O)(=O)c4ccc(C(F)(F)F)cc4)CC3)nc21 [Example 5] | 50 to 5200 | 50 to 5200 | 50 to 5200 | ≤ 50 | < 10 | < 10 | 10 to 100
14 | C[C@@]1(O)CCC[C@H]1n1c(=O)c(OC(F)F)cc2cnc(NC3CCN(S(=O)(=O)c4ccc(F)c(F)c4)CC3)nc21 [Example 18] | 50 to 5200 | ≤ 50 | ≤ 50 | ≤ 50 | < 10 | < 10 | < 10

Now from value to molecule:

Row | IC50 (MCF7 cells) [nM] | IC50 (HCC1806 cells) [nM] | IC50 (OVCAR3 cells) [nM] | IC50 (T47D cells) [nM] | IC50 (CDK6/CycD1) [nM] | IC50 (CDK2/CycE1) [nM] | IC50 (CDK4/CycD3) [nM] | Structure (SMILES)
15 | ≤ 50 | 50 to 5200 | ≤ 50 | ≤ 50 | < 10 | < 10 | < 10 | C[C@@]1(O)CCC[C@H]1n1c(=O)c(OC(F)F)cc2cnc(NC3CCN(S(=O)(=O)c4cccnc4)CC3)nc21 [Example 51]
16 | 50 to 5200 | 200 to 51000 | 50 to 5200 | 50 to 5200 | < 10 | < 10 | 10 to 100 | CCCc1ccc(S(=O)(=O)N2CCC(Nc3ncc4cc(OC(F)F)c(=O)n([C@@H]5CCC[C@@]5(C)O)c4n3)CC2)cc1 [Example 28]
17 | 50 to 5200 | 50 to 5200 | 50 to 5200 | ≤ 50 | < 10 | < 10 | 10 to 100 | C[C@@]1(O)CCC[C@H]1n1c(=O)c(OC(F)F)cc2cnc(NC3CCN(S(=O)(=O)c4cc(F)ccc4F)CC3)nc21 [Example 26]
18 | 50 to 5200 | 50 to 5200 | ≤ 50 | ≤ 50 | < 10 | < 10 | 10 to 100 | C[C@@]1(O)CCC[C@H]1n1c(=O)c(OC(F)F)cc2cnc(NC3CCN(S(=O)(=O)c4ccccc4F)CC3)nc21 [Example 25]
19 | ≤ 50 | 50 to 5200 | ≤ 50 | ≤ 50 | < 10 | < 10 | 10 to 100 | CC(C)(O)Cn1cc(S(=O)(=O)N2CCC(Nc3ncc4cc(OC(F)F)c(=O)n([C@@H]5CCC[C@@]5(C)O)c4n3)CC2)cn1 [Example 75]
20 | ≤ 50 | ≤ 50 | ≤ 50 | ≤ 50 | < 10 | < 10 | < 10 | COc1ccc(S(=O)(=O)N2CCC(Nc3ncc4cc(OC(F)F)c(=O)n([C@@H]5CCC[C@@]5(C)O)c4n3)CC2)cc1 [Example 24]
21 | 50 to 5200 | 50 to 5200 | ≤ 50 | ≤ 50 | < 10 | < 10 | 10 to 100 | C[C@@]1(O)CCC[C@H]1n1c(=O)c(OC(F)F)cc2cnc(Nc3ccc4c(c3)CN(S(C)(=O)=O)C4)nc21 [Example 64]
